This is an account of results in ChEMBL document CHEMBL4402537, “Recent development of membrane-active molecules as antibacterial agents” (2019).

For orientation: MIC means the least concentration at which growth counts as inhibited. Read a high MIC as weaker potency.

Common to all, as to format: functional
Experiment [1] relates to Staphylococcus aureus. The experiment in a line: Antibacterial activity against Staphylococcus aureus after 10 hrs by broth microdilution assay. Background: Dilution methods test growth across graded concentrations, often in twofold steps.
The test system of experiment [2] is Escherichia coli. The experiment in a line: Antibacterial activity against Escherichia coli after 10 hrs by broth microdilution assay.
Experiment [3] concerns Staphylococcus aureus. The experiment in a line: Antibacterial activity against methicillin resistant Staphylococcus aureus.
The subject of experiment [4] is Staphylococcus aureus. The experiment in a line: Antibacterial activity against methicillin resistant Staphylococcus aureus clinical isolate.
For experiment [5], the system named is Acinetobacter baumannii. The experiment in a line: Antibacterial activity against Acinetobacter baumannii.
Experiment [6] deals with Klebsiella pneumoniae. Briefly: Antibacterial activity against Klebsiella pneumoniae.
Experiment [7] concerns Staphylococcus aureus. Briefly: Antibacterial activity against Staphylococcus aureus ATCC 29213 after 18 to 20 hrs by CLSI based direct colony suspension method.
The test system of experiment [8] is Bacillus cereus. The experiment in a line: Antibacterial activity against Bacillus cereus ATCC 11778 after 18 to 20 hrs by CLSI based direct colony suspension method.
The test system of experiment [9] is Enterococcus faecalis. The experiment in a line: Antibacterial activity against Enterococcus faecalis ATCC 29212 after 18 to 20 hrs by CLSI based direct colony suspension method.
Experiment [10] concerns Staphylococcus aureus. The experiment in a line: Antibacterial activity against methicillin resistant Staphylococcus aureus DM21455 after 18 to 20 hrs by CLSI based direct colony suspension method.
For experiment [11], the system named is Staphylococcus aureus. Briefly: Antibacterial activity against methicillin resistant Staphylococcus aureus DM09808R after 18 to 20 hrs by CLSI based direct colony suspension method.
In experiment [12] the test system is Staphylococcus aureus. Briefly: Antibacterial activity against methicillin resistant Staphylococcus aureus DB57964/04 after 18 to 20 hrs by CLSI based direct colony suspension method.

Each structure is given as a SMILES string. ≈ marks a conversion by molar mass, not a printed value.

As to `CCCCCCCCCCCCNC(=O)C[N+](C)(C)C`, the MIC worked out at 43 µM in experiment [1] and 35 µM in experiment [2].
For `CCCCCCCCCCCCNC(=O)C[N+](C)(C)CCCCCC[N+](C)(C)CC(=O)NCCCCCCCCCCCC`, in that order: 10 µM and 13 µM.
Regarding `CCCCCCCCCCCCCC(=O)N(CCCNC(=O)[C@H](N)CCCCN)CCCNC(=O)[C@H](N)CCCCN.O=C(O)C(F)(F)F.O=C(O)C(F)(F)F.O=C(O)C(F)(F)F.O=C(O)C(F)(F)F`, the MIC in experiment [3] was 3.1 to 6.3 µg/mL.
For the molecule `CCCCCCN(Cc1ccc(-c2ccc(CN(CCCCCC)C(=O)[C@@H](N)CCCCN)cc2)cc1)C(=O)[C@@H](N)CCCCN.O=C(O)C(F)(F)F.O=C(O)C(F)(F)F.O=C(O)C(F)(F)F.O=C(O)C(F)(F)F`, the MIC in experiment [3] is 3.1 µg/mL; in experiment [4], 6.2 µg/mL.
`CCCCCCCC(=O)N(CCCNC(=O)[C@@H](CCCCN)NC(=O)[C@H](N)CCCCN)CCCNC(=O)[C@@H](CCCCN)NC(=O)[C@H](N)CCCCN.O=C(O)C(F)(F)F.O=C(O)C(F)(F)F.O=C(O)C(F)(F)F.O=C(O)C(F)(F)F.O=C(O)C(F)(F)F.O=C(O)C(F)(F)F`: the MIC in experiment [3], in [5] and in [6] was 6.3 to 12.5 µg/mL throughout.
With `COc1c(O)cc2oc3cc(O)c(CC=C(C)C)c(O)c3c(=O)c2c1CC=C(C)C` [MANGOSTIN], the MIC in experiment [7], in [8], in [9], in [10], in experiment [11] and in experiment [12] was 0.78 to 1.56 µg/mL (≈ 1.9 to 3.8 µM) in each case.
